# Source: PubChem BioAssay (NCI)
#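 1) Cells in 96-well plates. 2) Compound, 48 h, 5 concentrations. 3) Linear interpolation between surrounding doses. 4) Unreached endpoint = highest concentration. GI50: concentration for 50% inhibition of growth. TGI: concentration producing complete growth inhibition.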
# Tested on: HL-60(TB) leukemia
# Experiment: NCI tumour cell line growth inhibition, 48 h
SMILES,TGI [µM],GI50 [µM]
CCCCCCCCCCCCCCC1OC(=O)c2ccccc21 (stereo not given),40.7,–
COC(=O)c1c(OC)cccc1C(=O)O,> 100,–
Cc1cccc(C(C)(C)C)c1NC(=O)C(=O)Cc1nc2ccccc2s1,> 100,–
NC1(CCCCCCCCCCC(=O)O)CNCCNCCNCCNC1,47.5,–
Clc1cccc(NC=Nc2ccc(-c3nc4ccccc4s3)cc2)c1,27.3,10.5
CCC1CCC2CCCC(C)N12 (stereo not given),> 100,–
COc1cc2c(c(OC)c1OC)-c1ccc(NCc3ccccc3)c(=O)cc1[C@@H](NC(C)=O)CC2,–,0.353

# Tested on: CCRF-CEM leukemia
# Experiment: NCI tumour cell line growth inhibition, 48 h
SMILES,TGI [µM],GI50 [µM]
Cc1cccc2c3ccc4c(c3n(C)c12)C(=O)C=CC4=O,61.2,–
COc1nc2c(cc1S(=O)(=O)c1ccccc1)CCc1c-2cnn1-c1ccccc1Cl,> 100,7.84
C[C@]12CCC(=O)C=C1CC[C@@H]1C2CC[C@]2(C)NC(=O)C(C#N)CC12 (stereo not given in full),> 100,–
O=S(=O)(O)C(O)/C=C/c1ccccc1 (stereo not given),> 100,–
OCc1c(-c2cccc3ccccc23)sc(-c2cccc3ccccc23)c1CO,46.5,–
S=C1NCCN1C1=Nc2ccccc2CO1,> 100,> 100
CC1=C(CCCOC(=O)NCCCl)C2=C(C)C3(CC3)[C@@](C)(O)C(=O)C2=C1,> 100,9.4
CCCCCCCCCCCCCCC1OC(=O)c2ccccc21 (stereo not given),> 100,–
O=c1[nH]c(=O)n(C2CC(O)C(CO)O2)cc1C#Cc1c(F)c(F)c(F)c(F)c1F (stereo not given),> 100,–
COC(=O)c1c(OC)cccc1C(=O)O,> 100,–
O=C1c2ccccc2-c2c1c1cc3c(cc1c(=O)n2CCCCl)OCO3,> 100,66.1
NC1(CCCCCCCCCCC(=O)O)CNCCNCCNCCNC1,> 100,–
Clc1cccc(NC=Nc2ccc(-c3nc4ccccc4s3)cc2)c1,25.4,10.5
CCC1CCC2CCCC(C)N12 (stereo not given),> 100,–
COc1cc2c(c(OC)c1OC)-c1ccc(NCc3ccccc3)c(=O)cc1[C@@H](NC(C)=O)CC2,> 100,0.34

# Tested on: COLO 205 colon
# Experiment: NCI tumour cell line growth inhibition, 48 h
SMILES,TGI [µM],GI50 [µM]
Cc1cccc2c3ccc4c(c3n(C)c12)C(=O)C=CC4=O,> 100,–
COc1nc2c(cc1S(=O)(=O)c1ccccc1)CCc1c-2cnn1-c1ccccc1Cl,> 100,9.07
O=S(=O)(O)C(O)/C=C/c1ccccc1 (stereo not given),> 100,–
OCc1c(-c2cccc3ccccc23)sc(-c2cccc3ccccc23)c1CO,24.9,–
S=C1NCCN1C1=Nc2ccccc2CO1,> 100,> 100
CC1=C(CCCOC(=O)NCCCl)C2=C(C)C3(CC3)[C@@](C)(O)C(=O)C2=C1,6.65,2.06
O=c1[nH]c(=O)n(C2CC(O)C(CO)O2)cc1C#Cc1c(F)c(F)c(F)c(F)c1F (stereo not given),> 100,–
COC(=O)c1c(OC)cccc1C(=O)O,> 100,–
Cc1cccc(C(C)(C)C)c1NC(=O)C(=O)Cc1nc2ccccc2s1,> 100,–
NC1(CCCCCCCCCCC(=O)O)CNCCNCCNCCNC1,> 100,–
Clc1cccc(NC=Nc2ccc(-c3nc4ccccc4s3)cc2)c1,39.9,12.2
CCC1CCC2CCCC(C)N12 (stereo not given),> 100,–
COc1cc2c(c(OC)c1OC)-c1ccc(NCc3ccccc3)c(=O)cc1[C@@H](NC(C)=O)CC2,0.638,0.277

# Tested on: UO-31 renal
# Experiment: NCI tumour cell line growth inhibition, 48 h
SMILES,TGI [µM],GI50 [µM]
Cc1cccc2c3ccc4c(c3n(C)c12)C(=O)C=CC4=O,> 100,–
COc1nc2c(cc1S(=O)(=O)c1ccccc1)CCc1c-2cnn1-c1ccccc1Cl,> 100,3.13
C[C@]12CCC(=O)C=C1CC[C@@H]1C2CC[C@]2(C)NC(=O)C(C#N)CC12 (stereo not given in full),> 100,–
O=S(=O)(O)C(O)/C=C/c1ccccc1 (stereo not given),> 100,–
OCc1c(-c2cccc3ccccc23)sc(-c2cccc3ccccc23)c1CO,23.7,–
S=C1NCCN1C1=Nc2ccccc2CO1,> 100,> 100
CC1=C(CCCOC(=O)NCCCl)C2=C(C)C3(CC3)[C@@](C)(O)C(=O)C2=C1,5.76,2.02
CCCCCCCCCCCCCCC1OC(=O)c2ccccc21 (stereo not given),> 100,–
O=c1[nH]c(=O)n(C2CC(O)C(CO)O2)cc1C#Cc1c(F)c(F)c(F)c(F)c1F (stereo not given),> 100,–
COC(=O)c1c(OC)cccc1C(=O)O,> 100,–
Cc1cccc(C(C)(C)C)c1NC(=O)C(=O)Cc1nc2ccccc2s1,> 100,–
O=C1c2ccccc2-c2c1c1cc3c(cc1c(=O)n2CCCCl)OCO3,> 100,> 100
NC1(CCCCCCCCCCC(=O)O)CNCCNCCNCCNC1,> 100,–
Clc1cccc(NC=Nc2ccc(-c3nc4ccccc4s3)cc2)c1,33.6,13.8
CCC1CCC2CCCC(C)N12 (stereo not given),> 100,–
COc1cc2c(c(OC)c1OC)-c1ccc(NCc3ccccc3)c(=O)cc1[C@@H](NC(C)=O)CC2,44.9,4.99

# Tested on: RXF 393 renal
# Experiment: NCI tumour cell line growth inhibition, 48 h
SMILES,GI50 [µM],TGI [µM]
COc1nc2c(cc1S(=O)(=O)c1ccccc1)CCc1c-2cnn1-c1ccccc1Cl,6.74,> 100
C[C@]12CCC(=O)C=C1CC[C@@H]1C2CC[C@]2(C)NC(=O)C(C#N)CC12 (stereo not given in full),–,> 100
O=S(=O)(O)C(O)/C=C/c1ccccc1 (stereo not given),–,> 100
CCCCCCCCCCCCCCC1OC(=O)c2ccccc21 (stereo not given),–,> 100
COC(=O)c1c(OC)cccc1C(=O)O,–,> 100
NC1(CCCCCCCCCCC(=O)O)CNCCNCCNCCNC1,–,> 100

# Tested on: HOP-92 NSCLC
# Experiment: NCI tumour cell line growth inhibition, 48 h
SMILES,TGI [µM],GI50 [µM]
Cc1cccc2c3ccc4c(c3n(C)c12)C(=O)C=CC4=O,> 100,–
OCc1c(-c2cccc3ccccc23)sc(-c2cccc3ccccc23)c1CO,30.7,–
S=C1NCCN1C1=Nc2ccccc2CO1,> 100,> 100
CC1=C(CCCOC(=O)NCCCl)C2=C(C)C3(CC3)[C@@](C)(O)C(=O)C2=C1,8.24,2.87
Cc1cccc(C(C)(C)C)c1NC(=O)C(=O)Cc1nc2ccccc2s1,> 100,–
O=C1c2ccccc2-c2c1c1cc3c(cc1c(=O)n2CCCCl)OCO3,> 100,41.1
Clc1cccc(NC=Nc2ccc(-c3nc4ccccc4s3)cc2)c1,> 50,19.6
CCC1CCC2CCCC(C)N12 (stereo not given),> 100,–
COc1cc2c(c(OC)c1OC)-c1ccc(NCc3ccccc3)c(=O)cc1[C@@H](NC(C)=O)CC2,4.1,0.318
